Experimental data: US4404230A, “4-Hydroxy-1,2-Benzisothiazol-3(2H)-one-1,1-dioxides and salts thereof” (priority 1980, dated 1983)

Assays:
[1] = system: Candida albicans ATCC 10231; experiment: Fungistasis, serial dilution test; assay type: cell-based; conditions: 320 μg/ml
Method: (§1) Substance B was tested with regard to its bacteria- and fungi-inhibiting effect by the serial dilution test and agar diffusion test.

[2] = system: Aspergillus niger; experiment: Fungistasis, serial dilution test; assay type: cell-based; conditions: 320 μg/ml
Method: as §1

[3] = system: rats; experiment: Effect on motility of rats (sedative or stimulating effect); assay type: in vivo, Chbb:THOM-rats; conditions: 100 mg/kg p.o.
Method: In analogy to the method described by Fuhrer and Feldhofen (Arzneimittel-Forschung 11, 1027, 1961) substance B was tested on 6 female Chbb:THOM-rats (SPF) having a body weight of 160-190 gm, after administration of 100 mg/kg p.o. in a suspension of 1% tylose. The motility of the rats in cages was measured for 30 minutes one hour after administration of the test compound. A control group received only tylose. The change in motility given in percent with regard to that of the control group was determined.

[4] = system: Mouse; experiment: Test for acute toxicity, mouse; conditions: for Animals which died: 10 animals
Method: The acute toxicity was determined after oral administration of substance B to male and female mice, rats and dogs. The substance was administered to mice and rats in the form of a suspension in tylose and to dogs in the form of a solution in water.

[5] = system: mice; experiment: Effect on reserpine-hypothermia in mice; assay type: in vivo, Chbb:NMRI-mice
Method: In analogy to Askew [Life Sci. 2, 275, (1963)] hypothermia was induced by s.c. administration of 3 mg/kg of reserpine in male Chbb:NMRI-mice (SPF) having a body weight of 20-26 gm. […] A control group received only the solvent p.o.; 1 to 4 hours after administration the temperature was measured every hour. The values given in the table are at average temperature values ±SD.

[6] = system: rats; experiment: Test for subacute toxicity in the rat; assay type: in vivo, Chbb:Thom-rats; conditions: 750 mg/kg daily, 5 weeks
Method: The test was carried out on 10 male and 10 female Chbb:Thom-rats. During a period of 5 weeks 750 mg/kg of substance B were administered to the animals daily. […] After the 5 weeks the animals were killed, and the following organs were dissected for histological examination: heart, lungs, liver, spleen, suprarenals, brain, kidney and pancreas.

[7] = system: mice; experiment: Effect on maximum electroshock convulsions in mice; assay type: in vivo, Chbb:NMRI-mice; conditions: 200 mg/kg p.o.; for Number of protected animals: N = 10
Method: According to Swinyard, Brown and Goodman [J. Pharmacol. exp. Ther. 106, 319 (1952)], 200 mg/kg of substance B in aqua dist. solution were administered perorally to 10 male Chbb:NMRI-mice (SPF). After 30, 150 and 300 minutes tonic extensor spasms were induced by alternating current via head-electrodes (50 mA, 50 Hz, 2 sec. duration). Tonic extensor spasms of the extremities cannot be observed after treatment with substances having an anticonvulsive activity.

[8] = system: taste testers; experiment: Determination of the relative sweetening power in comparison to saccharose; assay type: in vivo; conditions: compared with 3% aqueous solution of saccharose
From the text: The relative sweetening power (often also defined as degree of sweetness) of sweetening agents in comparison with saccharose (cane sugar) varies considerably with concentration. […] Therefore, for the determination of the relative sweetening power of the test compounds a 3% aqueous solution of saccharose was always used for comparison.

[9] = system: Salmonella typhimurium TA 98, TA 100, TA 1535, TA 1537 and TA 1538; experiment: Test for mutagenic effects (AMES-system), all strains together; assay type: cell-based
Method: Compound B was tested according to the AMES-system [Mutation Research 31, 347-364 (1975)] for mutagenic properties. In order to show the whole spectrum of induced molecular DNA-damage (base substitutions, frame-shift mutations, deletions) the auxotrophic bacterial strains Salmonella typhimurium TA 98, TA 100, TA 1535, TA 1537 and TA 1538 were used as genetic indicators.
The tests for all microorganisms were carried out such that the effect of the test compound on a microsomal enzyme system together with the corresponding co-factors could be tested, and furthermore to determine the effect on enzyme induction. The tests were performed without an activating system and in the presence of an activating system. For the in-vitro-activation S-9 supernatants (fractions of the endoplasmatic reticulum) of normal, i.e. not pretreated rats and of rats induced by aroclor 1254 (500 mg/kg) wer used. For the S-9 induced fraction, 3 different concentrations were tested.
Compound B was tested at concentrations of 0.25, 2.5, 5 and 10 mg/plate.

[10] = system: rats; experiment: Effect on the kaolin edema in rats; assay type: in vivo, Chbb:THOM-rats; conditions: 100 mg/kg p.o.
Method: According to Hillebrecht [Arzneimittel-Forschung 4, 607 (1954)] an edema was induced in 20 Chbb:THOM-rats (SPF) of both sexes having a body weight of 125-150 gm by subplantar injection of 0.05 ml of a 10% kaolin suspension in the hind paw. 30 minutes before, 100 mg/kg of substance B as aqua dist. solution was orally administered to 10 animals. Ten control animals received only the solvent. The thickness of the paw was measured before the administration of the test compound and 5 hours after administration. The edema-altering effect was expressed in percent of the average degree of swelling of the control animals.

[11] = system: Candida albicans ATCC 10231; experiment: Fungistasis, agar diffusion test; assay type: cell-based; conditions: 16,000 μg/ml
Method: as §1

[12] = system: Trychophyton mentagrophytes ATCC 9129; experiment: Fungistasis, agar diffusion test; assay type: cell-based; conditions: 16,000 μg/ml
Method: as §1

[13] = system: Aspergillus niger; experiment: Fungistasis, agar diffusion test; assay type: cell-based; conditions: 16,000 μg/ml
Method: as §1

Q: With `O=C1NS(=O)(=O)c2cccc(O)c21.[Na]` as the compound, how does the inhibiting effect [1] read?
A: did not show any inhibiting effect

Q: What about the inhibiting effect [2] of the same compound?
A: did not show any inhibiting effect

Q: What about the “effect on motility of rats (in words)” value [3] of the same compound?
A: does not affect the motility of the rats

Q: What about the Motility of rats ([3]; 60-90 min) of the same compound?
A: 235 ± 58 contacts/animal

Q: And the “% motility” value ([3]; 60-90 min, vs control)?
A: 113%

Q: What about the Animals which died ([4]; 10 g/kg oral, 1 day) of the same compound?
A: 0

Q: And the Animals which died ([4]; 10 g/kg oral, 7 days)?
A: 0

Q: And the Animals which died ([4]; 10 g/kg oral, 14 days)?
A: 0

Q: And the “deaths (in words)” value ([4]; 10 g/kg oral, during the observation time)?
A: no animals died

Q: And the behavior ([4]; mouse, in vivo, po)?
A: completely normal behavior

Q: And the toxic symptoms ([4]; mouse, in vivo, po)?
A: no toxic symptoms could be observed

Q: And the body temperature ([5]; 100 mg/kg p.o., 1 hour)?
A: 26.0 °C

Q: And the body temperature ([5]; 100 mg/kg p.o., 2 hours)?
A: 26.7 °C

Q: And the body temperature ([5]; 100 mg/kg p.o., 3 hours)?
A: 26.6 °C

Q: And the body temperature ([5]; 100 mg/kg p.o., 4 hours)?
A: 26.8 °C

Q: What about the body temperature ([5]; 400 mg/kg p.o. [sic], 1 hour) of the same compound?
A: 24.0 °C

Q: And the body temperature ([5]; 400 mg/kg p.o. [sic], 2 hours)?
A: 24.7 °C

Q: And the body temperature ([5]; 400 mg/kg p.o. [sic], 3 hours)?
A: 25.3 °C

Q: What about the body temperature ([5]; 400 mg/kg p.o. [sic], 4 hours) of the same compound?
A: 25.9 °C

Q: And the “effect on reserpine-induced hypothermia (in words)” value ([5]; 40 and 100 mg/kg p.o.)?
A: does not show an effect on hypothermia in mice induced by reserpine

Q: What about the behavior [6] of the same compound?
A: normal behavior

Q: And the spontaneous deaths [6]?
A: No spontaneous deaths could be observed

Q: What about the “histological examination of organs” value ([6]; heart, lungs, liver, spleen, suprarenals, brain, kidney, pancreas) of the same compound?
A: did not show any pathological findings

Q: And the “anticonvulsive activity (in words)” value [7]?
A: does not show any anticonvulsive activity

Q: And the “Number of protected animals” value ([7]; 30 min)?
A: 0

Q: What about the “Number of protected animals” value ([7]; 150 min) of the same compound?
A: 0

Q: What about the “Number of protected animals” value ([7]; 300 min) of the same compound?
A: 0

Q: And the “Relative sweetening power (Saccharose = 1)” value [8]?
A: 210

Q: And the “effect on enzyme induction and the activating fraction upon the reversion rate” value [9]?
A: No effect on enzyme induction and the activating fraction upon the reversion rate was detected

Q: And the “mutagenicity, overall” value [9]?
A: not mutagenic

Q: What about the “colonies counted on the test plates” value ([9]; each test strain) of the same compound?
A: showed the normal spontaneous range for each test strain

Q: What about the “antiexudative effect (in words)” value [10] of the same compound?
A: does not show any antiexudative effect in rats

Q: What about the “Average degree of swelling” value ([10]; 5 hours) of the same compound?
A: 239.0

Q: And the Inhibition in % ([10]; 5 hours)?
A: 13.7%

Q: And the inhibiting effect [11]?
A: did not show any inhibiting effect

Q: And the inhibiting effect [12]?
A: did not show any inhibiting effect

Q: What about the inhibiting effect [13] of the same compound?
A: did not show any inhibiting effect
